Measurements as given in PubChem BioAssay AID200 (DTP/NCI, 2004).
Values joined by “and” are separate entries in the source; they are usually repeats but may differ in a detail not shown here. Equal entries are not always repeated. Inconclusive results and toxic doses are left out. Where a SMILES comes first, the peptide text is derived from it.

Tested on: B6C3F1 mice, B16 melanoma ip, median survival T/C
Test: NCI In Vivo Anticancer Drug Screen. Data for tumor model B16 Melanoma (intraperitoneal) in B6C3F1 mice
Settings: endpoint: median survival time, higher = longer survival
Procedure, shortened: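 Transplantable tumor in mice; treated vs vehicle control groups; survival or tumor size measured; value = T/C ratio.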

[1] = dose: 50.0 mg/kg/injection, schedule: Q01DX009 (ip), vehicle: saline
[2] = dose: 100.0 mg/kg/injection, schedule: Q01DX009 (ip), vehicle: saline
[3] = dose: 200.0 mg/kg/injection, schedule: Q01DX009 (ip), vehicle: saline
[4] = dose: 12.5 mg/kg/injection, schedule: Q01DX009 (ip), vehicle: saline with Tween-80
[5] = dose: 25.0 mg/kg/injection, schedule: Q01DX009 (ip), vehicle: saline with Tween-80
[6] = dose: 50.0 mg/kg/injection, schedule: Q01DX009 (ip), vehicle: saline with Tween-80
[7] = dose: 100.0 mg/kg/injection, schedule: Q01DX009 (ip), vehicle: saline with Tween-80
[8] = dose: 6.25 mg/kg/injection, schedule: Q01DX009 (ip), vehicle: saline with Tween-80
[9] = dose: 25.0 mg/kg/injection, schedule: Q01DX009 (ip), vehicle: Klucel (hydroxypropylcellulose) (HPC)
[10] = dose: 50.0 mg/kg/injection, schedule: Q01DX009 (ip), vehicle: Klucel (hydroxypropylcellulose) (HPC)
[11] = dose: 100.0 mg/kg/injection, schedule: Q01DX009 (ip), vehicle: Klucel (hydroxypropylcellulose) (HPC)
[12] = dose: 12.5 mg/kg/injection, schedule: Q01DX009 (ip), vehicle: saline
[13] = dose: 25.0 mg/kg/injection, schedule: Q01DX009 (ip), vehicle: saline
[14] = dose: 12.5 mg/kg/injection, schedule: Q01DX009 (ip), vehicle: Klucel (hydroxypropylcellulose) (HPC)
[15] = dose: 400.0 mg/kg/injection, schedule: Q01DX009 (ip), vehicle: saline

In the case of `COC1CC(C)C(OC)c2cc(O)cc(c2O)NC(=O)/C(C)=C/C=C\C(C)C(OC(N)=O)/C(C)=C\C(C)C1OC` (stereo not given), the T/C (dose: 0.31 mg/kg/injection, schedule: Q01DX005 (iv), vehicle: other) is reported as 94 % of control, the T/C (dose: 0.31 mg/kg/injection, schedule: Q01DX009 (ip), vehicle: other) is reported as 109 % of control and the T/C (dose: 0.31 mg/kg/injection, schedule: Q01DX009 (ip), vehicle: saline with Tween-80) is reported as 98 % of control. The T/C (dose: 0.62 mg/kg/injection, schedule: Q01DX005 (iv), vehicle: other) was 101 % of control, the T/C (dose: 0.62 mg/kg/injection, schedule: Q01DX009 (ip), vehicle: saline with Tween-80) was 112 % of control and the T/C (dose: 1.25 mg/kg/injection, schedule: Q01DX005 (iv), vehicle: other) was 93 % of control. For the same compound, the T/C (dose: 1.25 mg/kg/injection, schedule: Q01DX009 (ip), vehicle: other) was 117 % of control, the T/C (dose: 2.5 mg/kg/injection, schedule: Q01DX005 (iv), vehicle: other) was 102 % of control and the T/C (dose: 2.5 mg/kg/injection, schedule: Q01DX009 (ip), vehicle: other) was 119 % of control. For the same compound, the T/C (dose: 5.0 mg/kg/injection, schedule: Q01DX005 (iv), vehicle: other) was 95 % of control, the T/C (dose: 5.0 mg/kg/injection, schedule: Q01DX009 (ip), vehicle: saline with Tween-80) was 171 % of control and the T/C (dose: 10.0 mg/kg/injection, schedule: Q01DX005 (iv), vehicle: other) was 109 % of control. The T/C (dose: 10.0 mg/kg/injection, schedule: Q01DX009 (ip), vehicle: other) was 114 % of control.
`Cc1cc(O)c2c(c1O)C(=O)C13C(=C2O)C(=O)C2C(O)C1C1C(O)C3C(=O)C3=C(O)c4c(O)cc(C)c(O)c4C(=O)C321` (stereo not given) was tested, and the T/C (dose: 0.19 mg/kg/injection, schedule: Q01DX009 (ip), vehicle: saline with Tween-80) was 109 % of control, the T/C (dose: 0.2 mg/kg/injection, schedule: Q01DX009 (ip), vehicle: saline with Tween-80) was 124 % of control and the T/C (dose: 0.39 mg/kg/injection, schedule: Q01DX009 (ip), vehicle: saline with Tween-80) was 114 % of control and 106 % of control. The T/C (dose: 0.78 mg/kg/injection, schedule: Q01DX009 (ip), vehicle: saline with Tween-80) was 117 % of control and the T/C (dose: 1.56 mg/kg/injection, schedule: Q01DX009 (ip), vehicle: saline with Tween-80) was 117 % of control.
With `NCC(=O)NC(CC(N)=O)C(=O)O` (stereo not given) (HELM PEPTIDE1{G.[NC(=O)CC(N[*:1])C(=O)O]}$$$$V2.0) the T/C [1] was 98 % of control, the T/C [2] was 91 % of control and the T/C [3] was 93 % of control.
`CN(C)CCc1ccc(O)cc1` was tested, and the T/C [2] was 89 % of control and the T/C [3] was 92 % of control.
In the case of `COC(=O)[C@@]12OC[C@]34[C@H]([C@@H](O)[C@@H]1O)[C@@]1(C)CC(=O)C(O)=C(C)[C@@H]1C[C@H]3OC(=O)[C@H](OC(=O)/C=C(\C)C(C)CO)[C@@H]24` (stereo not given in full), the T/C (dose: 6.0 mg/kg/injection, schedule: Q01DX009 (ip), vehicle: saline + alcohol) is reported as 174 % of control and the T/C (dose: 8.0 mg/kg/injection, schedule: Q01DX009 (ip), vehicle: saline + alcohol) is reported as 161 % of control and 173 % of control.
In the case of `COC(=O)C12OCC34C(CC5C(C)C6=CC(=O)OC6=CC5(C)C3C(O)C1O)OC(=O)C(O)C24` (stereo not given), the T/C (dose: 0.5 mg/kg/injection, schedule: Q01DX009 (ip), vehicle: Klucel (hydroxypropylcellulose) (HPC)) is reported as 154 % of control, the T/C (dose: 180.0 micrograms/kg/injection, schedule: Q01DX009 (ip), vehicle: Klucel (hydroxypropylcellulose) (HPC)) is reported as 116 % of control and the T/C (dose: 833.3 micrograms/kg/injection, schedule: Q01DX009 (ip), vehicle: Klucel (hydroxypropylcellulose) (HPC)) is reported as 153 % of control. The T/C (dose: 1388.8 micrograms/kg/injection, schedule: Q01DX009 (ip), vehicle: Klucel (hydroxypropylcellulose) (HPC)) was 178 % of control.
With `CN(C)P(=O)(Oc1ccccc1)N(C)C` the T/C [4] was 114 % of control and 98 % of control, the T/C [5] was 100 % of control and 101 % of control and the T/C [6] was 98 % of control and 99 % of control. The T/C [7] was 110 % of control and 99 % of control and the T/C (dose: 200.0 mg/kg/injection, schedule: Q01DX009 (ip), vehicle: saline with Tween-80) was 101 % of control and 103 % of control.
In the case of `CN=C(N)NCCCCCCCCNC(N)=NC`, the T/C [8] is reported as 102 % of control and the T/C [4] is reported as 98 % of control.
`CC1=CC2c3cccc4[nH]cc(c34)CC2N(C)C1` (stereo not given) was tested, and the T/C (dose: 2.5 mg/kg/injection, schedule: Q01DX009 (ip), vehicle: suspension in saline) was 103 % of control, the T/C (dose: 5.0 mg/kg/injection, schedule: Q01DX009 (ip), vehicle: suspension in saline) was 101 % of control and the T/C (dose: 10.0 mg/kg/injection, schedule: Q01DX009 (ip), vehicle: suspension in saline) was 101 % of control. For the same compound, the T/C (dose: 20.0 mg/kg/injection, schedule: Q01DX009 (ip), vehicle: suspension in saline) was 95 % of control.
With `O=C(O)CNC(=O)C(Cc1ccccc1)NC(=O)OCc1ccccc1` (stereo not given) (HELM PEPTIDE1{[O=C(OCc1ccccc1)[*:2]].[O=C(C(Cc1ccccc1)N[*:1])[*:2]].G}$$$$V2.0) the T/C [9] was 94 % of control, the T/C [10] was 102 % of control and the T/C [11] was 86 % of control and 94 % of control.
In the case of `BrCC[Se]c1ccccc1`, the T/C (dose: 3.12 mg/kg/injection, schedule: Q01DX009 (ip), vehicle: saline with Tween-80) is reported as 113 % of control and 104 % of control, the T/C [8] is reported as 100 % of control and the T/C [4] is reported as 119 % of control and 103 % of control. For the same compound, the T/C [5] was 113 % of control and 100 % of control and the T/C [6] was 95 % of control and 103 % of control.
For `O=C1N=C(Oc2ccccc2)SC1=O`, the T/C [4] was 110 % of control, the T/C [5] was 98 % of control and the T/C [6] was 103 % of control. For the same compound, the T/C [7] was 92 % of control.
With `CC1(C)COCN1COC1CCCCC1` the T/C (dose: 6.25 mg/kg/injection, schedule: Q01DX009 (ip), vehicle: saline) was 99 % of control, the T/C [12] was 114 % of control and the T/C [5] was 102 % of control. The T/C [13] was 99 % of control, the T/C [6] was 112 % of control and the T/C [1] was 114 % of control. For the same compound, the T/C [7] was 115 % of control and the T/C [2] was 106 % of control.
With `NC(=O)c1ncn(C2OC(CO)C(O)C2O)c1O` (stereo not given) the T/C [14] was 102 % of control and 106 % of control, the T/C [9] was 102 % of control and 107 % of control and the T/C [10] was 98 % of control and 107 % of control. For the same compound, the T/C [11] was 96 % of control and 106 % of control, the T/C (dose: 200.0 mg/kg/injection, schedule: Q01DX009 (ip), vehicle: Klucel (hydroxypropylcellulose) (HPC)) was 97 % of control and 102 % of control and the T/C (dose: 400.0 mg/kg/injection, schedule: Q01DX009 (ip), vehicle: Klucel (hydroxypropylcellulose) (HPC)) was 90 % of control.
In the case of `CO[C@H](/C(C)=C/C=C/C(C)=C/c1coc(C)n1)[C@H](C)[C@H]1C[C@@H](O)[C@@]2(C)O[C@H]2/C=C/[C@@H](C)[C@@H]2C[C@@H](CC(=O)O2)C[C@H]2O[C@@H]2C(=O)O1`, the T/C (dose: 0.01 mg/kg/injection, schedule: Q01DX009 (ip), vehicle: Klucel (hydroxypropylcellulose) (HPC)) is reported as 118 % of control and 98 % of control and 102 % of control, the T/C (dose: 0.01 mg/kg/injection, schedule: Q01DX009 (ip), vehicle: other) is reported as 94 % of control and 106 % of control and the T/C (dose: 0.03 mg/kg/injection, schedule: Q01DX009 (ip), vehicle: Klucel (hydroxypropylcellulose) (HPC)) is reported as 111 % of control and 112 % of control and 97 % of control. The T/C (dose: 0.03 mg/kg/injection, schedule: Q01DX009 (ip), vehicle: other) was 110 % of control, the T/C (dose: 0.1 mg/kg/injection, schedule: Q01DX009 (sc), vehicle: Klucel (hydroxypropylcellulose) (HPC)) was 154 % of control and the T/C (dose: 0.4 mg/kg/injection, schedule: Q01DX009 (sc), vehicle: Klucel (hydroxypropylcellulose) (HPC)) was 117 % of control.
With `CCC(=O)OCC1OC(n2cnc3c(=S)nc(N)[nH]c32)C(OC(=O)CC)C1OC(=O)CC` (stereo not given) the T/C [9] was 86 % of control.
In the case of `[N-]=[N+]=C1N=CN=C1c1ncn[nH]1`, the T/C (dose: 3.12 mg/kg/injection, schedule: Q01DX009 (ip), vehicle: Klucel (hydroxypropylcellulose) (HPC)) is reported as 104 % of control, the T/C (dose: 6.25 mg/kg/injection, schedule: Q01DX009 (ip), vehicle: Klucel (hydroxypropylcellulose) (HPC)) is reported as 113 % of control and the T/C [14] is reported as 121 % of control.
`OCC[N+]12CN3CN(CN(C3)C1)C2` was tested, and the T/C [13] was 101 % of control, the T/C [1] was 109 % of control and the T/C [2] was 103 % of control. The T/C [3] was 108 % of control and the T/C [15] was 108 % of control.
With `C(COCCOCC1CO1)OCCOCC1CO1` (stereo not given) the T/C [12] was 108 % of control, the T/C [13] was 104 % of control and the T/C [1] was 107 % of control. The T/C [3] was 153 % of control and the T/C [15] was 178 % of control.
With `NC(CCC(=O)Nc1ccc(O)cc1)C(=O)O` (stereo not given) the T/C [1] was 117 % of control, the T/C [2] was 120 % of control and the T/C [3] was 103 % of control. The T/C [15] was 124 % of control.
